Test results taken from ChEMBL document CHEMBL1123685, “Synthesis and antiviral activity of various 3'-azido, 3'-amino, 2',3'-unsaturated, and 2',3'-dideoxy analogues of pyrimidine deoxyribonucleosides against retroviruses” (1987).

System: Human immunodeficiency virus 1
Experiment: Activity against HTLV-III/LAV[…], was determined in vitro.
Assay type: functional
Details: read-out: ED50 (the source's name)

**Q.** Which EC50 does the source give for `[N-]=[N+]=N[C@H]1C[C@H](n2cc(Br)c(=O)[nH]c2=O)O[C@@H]1CO` here?
**A.** 2.3 µM

**Q.** Which EC50 does the source give for `Cc1cn([C@H]2C[C@H](N=[N+]=[N-])[C@@H](CO)O2)c(=O)[nH]c1=O` [ZIDOVUDINE] here?
**A.** 0.23 µM

System: Moloney murine leukemia virus
Experiment: In vitro inhibitory activity against Moloney murine leukemia virus (M-MULV) replication, a mammalian T-lymphotropic retrovirus
Assay type: functional
Details: read-out: ED50 (the source's name)

**Q.** With `Cc1cn([C@H]2C[C@H](O)[C@@H](CN=[N+]=[N-])O2)c(=O)[nH]c1=O` as the compound, how does the EC50 read?
**A.** > 100 µM

**Q.** `O=c1ccn([C@H]2CC[C@@H](CO)O2)c(=O)[nH]1` was tested. Which EC50 did it give?
**A.** > 100 µM

**Q.** With `[N-]=[N+]=N[C@H]1C[C@H](n2cc(C(F)(F)F)c(=O)[nH]c2=O)O[C@@H]1CO` as the compound, how does the EC50 read?
**A.** > 100 µM

**Q.** How did the EC50 turn out when `[N-]=[N+]=N[C@H]1C[C@H](n2cc(Br)c(=O)[nH]c2=O)O[C@@H]1CO` was run?
**A.** 1.5 µM

**Q.** How did the EC50 turn out when `N[C@H]1C[C@H](n2cc(C(F)(F)F)c(=O)[nH]c2=O)O[C@@H]1CO` was run?
**A.** > 100 µM

**Q.** `Cc1cn([C@H]2C[C@H](N=[N+]=[N-])[C@@H](CN=[N+]=[N-])O2)c(=O)[nH]c1=O` was tested. Which EC50 did it give?
**A.** 17 µM

**Q.** How did the EC50 turn out when `Cc1cn([C@H]2C[C@H](N=[N+]=[N-])[C@@H](CO)O2)c(=O)nc1N` was run?
**A.** > 100 µM

**Q.** For `[N-]=[N+]=N[C@H]1C[C@H](n2cc(F)c(N)nc2=O)O[C@@H]1CO`, which EC50 is on record?
**A.** > 100 µM

**Q.** For `[N-]=[N+]=N[C@H]1C[C@H](n2ccc(N)nc2=O)O[C@@H]1CO`, which EC50 is on record?
**A.** 58 µM

**Q.** Which EC50 does the source give for `[N-]=[N+]=N[C@H]1C[C@H](n2cc(I)c(=O)[nH]c2=O)O[C@@H]1CO` here?
**A.** 3 µM

**Q.** `Cc1cn([C@H]2C[C@H](N)[C@@H](CN)O2)c(=O)[nH]c1=O` was tested. Which EC50 did it give?
**A.** > 100 µM

**Q.** Which EC50 does the source give for `[N-]=[N+]=N[C@H]1C[C@H](n2cc(F)c(=O)[nH]c2=O)O[C@@H]1CO` here?
**A.** > 100 µM

**Q.** With `O=c1[nH]c(=O)n([C@H]2CC[C@@H](CO)O2)cc1/C=C/Br` as the compound, how does the EC50 read?
**A.** > 100 µM

**Q.** `O=c1[nH]c(=O)n([C@H]2CC[C@@H](CO)O2)cc1I` was tested. Which EC50 did it give?
**A.** > 100 µM

**Q.** Which EC50 does the source give for `Nc1ccn([C@H]2C=C[C@@H](CO)O2)c(=O)n1` here?
**A.** 3.7 µM

**Q.** `O=c1[nH]c(=O)n([C@H]2CC[C@@H](CO)O2)cc1Br` was tested. Which EC50 did it give?
**A.** > 100 µM

**Q.** With `Cc1cn([C@H]2C[C@H](O)[C@@H](CN)O2)c(=O)[nH]c1=O` as the compound, how does the EC50 read?
**A.** > 100 µM

**Q.** Which EC50 does the source give for `Cc1cn([C@H]2CC[C@@H](CO)O2)c(=O)[nH]c1=O` here?
**A.** > 100 µM

**Q.** Which EC50 does the source give for `O=c1ccn([C@H]2C=C[C@@H](CO)O2)c(=O)[nH]1` here?
**A.** > 100 µM

**Q.** Which EC50 does the source give for `Cc1cn([C@H]2C[C@H](N)[C@@H](CO)O2)c(=O)[nH]c1=O` [3-AMINO- 3-DEOXYTHYMIDINE] here?
**A.** 42 µM

**Q.** With `[N-]=[N+]=N[C@H]1C[C@H](n2ccc(=O)[nH]c2=O)O[C@@H]1CO` [NAVURIDINE] as the compound, how does the EC50 read?
**A.** 52 µM

**Q.** How did the EC50 turn out when `Cc1cn([C@H]2C=C[C@@H](CO)O2)c(=O)[nH]c1=O` [STAVUDINE] was run?
**A.** 2.5 µM

**Q.** With `Nc1ccn([C@H]2CC[C@@H](CO)O2)c(=O)n1` [ZALCITABINE] as the compound, how does the EC50 read?
**A.** 4 µM

**Q.** With `Cc1cn([C@H]2C[C@H](N=[N+]=[N-])[C@@H](CO)O2)c(=O)[nH]c1=O` [ZIDOVUDINE] as the compound, how does the EC50 read?
**A.** 0.02 µM

System: Moloney murine leukemia virus
Experiment: Compound was tested against Moloney murine leukemia virus (M-MULV) in 3T3 cells, at a concentration of 10 uM
Assay type: functional
Details: NIH3T3

**Q.** For `Cc1cn([C@H]2CC[C@@H](CO)O2)c(=O)[nH]c1=O`, which inhibition at 10 µM is on record?
**A.** 50%
